Reference: patent US8354419B2, “Benzimidazole analogues for the treatment or prevention of flavivirus infections” (Vertex Pharmaceuticals Incorporated, priority 2009, dated 2013)

test system: HCV (Ib) RNA replication; assay: Cell-based luciferase reporter HCV (1b) RNA replication assay (replicon cell lines Huh-7 5.2 and ET); design: species or system Hepatitis C virus; settings: Hepatitis C virus, Huh-7, 96 h, HCV 1b genotype replicon, luciferase readout, 4 days incubation; read-out: EC50_1b
How it was run: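 Huh-7-derived 5.2 or ET replicon cells carrying a firefly luciferase reporter were seeded at ~3000 cells/well in medium without G418 or phenol red. Compound was added after 3-4 h, followed by 4 days at 37 °C. Luciferase readout was used, with IC50 fitted by nonlinear regression from eleven concentrations in duplicate.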

Question: Which EC50 does the source give for `COC(=O)N[C@H](C(=O)N1CCC[C@H]1c1nc2cc(-c3cc(C#N)c(-c4ccc5[nH]c([C@@H]6CCCN6C(=O)[C@@H](NC(=O)OC)C(C)C)nc5c4)cc3Cl)ccc2[nH]1)C(C)C` [Compound 154] here?
Answer: Its EC50 is ≤ 5 nM.

Question: `COC(=O)N[C@H](C(=O)N1CCC[C@H]1c1nc2cc(-c3cc(C)c(-c4ccc5[nH]c([C@@H]6CCCN6C(=O)[C@@H](NC(=O)OC)C(C)C)nc5c4)s3)ccc2[nH]1)C(C)C` [Compound 155] was tested. Which EC50 did it give?
Answer: The EC50 was ≤ 5 nM.

Question: With `Cc1cc(-c2ccc3[nH]c([C@@H]4CCCN4C(=O)[C@@H](NC(=O)O[C@H]4CCOC4)C(C)C)nc3c2)sc1-c1ccc2[nH]c([C@@H]3CCCN3C(=O)[C@@H](NC(=O)O[C@H]3CCOC3)C(C)C)nc2c1` [Compound 156] as the molecule, how does the EC50 read?
Answer: Its EC50 is 5 to 5000 nM.

Question: With `CCCCc1cc(-c2ccc3[nH]c([C@@H]4CCCN4C(=O)[C@@H](NC(=O)OC)C(C)C)nc3c2)sc1-c1ccc2[nH]c([C@@H]3CCCN3C(=O)[C@@H](NC(=O)OC)C(C)C)nc2c1` [Compound 157] as the molecule, how does the EC50 read?
Answer: Its EC50 is ≤ 5 nM.

Question: How did the EC50 turn out when `CCCCc1cc(-c2ccc3[nH]c([C@@H]4CCCN4C(=O)[C@@H](NC(=O)O[C@H]4CCOC4)C(C)C)nc3c2)sc1-c1ccc2[nH]c([C@@H]3CCCN3C(=O)[C@@H](NC(=O)O[C@H]3CCOC3)C(C)C)nc2c1` [Compound 158] was run?
Answer: The EC50 was ≤ 5 nM.

Question: For `COC(=O)N[C@H](C(=O)N1CCC[C@H]1c1nc2cc(-c3csc(-c4ccc5[nH]c([C@@H]6CCCN6C(=O)[C@@H](NC(=O)OC)C(C)C)nc5c4)n3)ccc2[nH]1)C(C)C` [Compound 159], which EC50 is on record?
Answer: Its EC50 is ≤ 5 nM.

Question: How did the EC50 turn out when `CC(C)[C@H](NC(=O)O[C@H]1CCOC1)C(=O)N1CCC[C@H]1c1nc2cc(-c3csc(-c4ccc5[nH]c([C@@H]6CCCN6C(=O)[C@@H](NC(=O)O[C@H]6CCOC6)C(C)C)nc5c4)n3)ccc2[nH]1` [Compound 160] was run?
Answer: Its EC50 is 5 to 5000 nM.

Question: Which EC50 does the source give for `COC(=O)N[C@H](C(=O)N1CCC[C@H]1c1nc2cc(-c3ccc(-c4ccc5nc([C@@H]6CCCN6C(=O)[C@@H](NC(=O)OC)C(C)C)[nH]c5c4)cc3CO)ccc2[nH]1)C(C)C` [Compound 161] here?
Answer: The EC50 was ≤ 5 nM.

Question: How did the EC50 turn out when `COC(=O)N[C@@H](C(=O)N1CCC[C@H]1c1nc2cc(-c3ccc(-c4ccc5[nH]c([C@@H]6CCCN6C(=O)[C@H](NC(=O)OC)C(C)C)nc5c4)nn3)ccc2[nH]1)C(C)C` [Compound 162] was run?
Answer: Its EC50 is ≤ 5 nM.

Question: Which EC50 does the source give for `COC(=O)N[C@H](C(=O)N1CCC[C@H]1c1nc2cc(-c3ccc(-c4ccc5[nH]c([C@@H]6CCCN6C(=O)[C@@H](NC(=O)OC)C(C)C)nc5c4)c4ncccc34)ccc2[nH]1)C(C)C` [Compound 163] here?
Answer: Its EC50 is ≤ 5 nM.

Question: `COC(=O)N[C@H](C(=O)N1CCC[C@H]1c1nc2cc(-c3ccc(-c4ccc5nc([C@@H]6CCCN6C(=O)[C@@H](NC(=O)OC)C(C)C)[nH]c5c4)cc3NC(C)=O)ccc2[nH]1)C(C)C` [Compound 164] was tested. Which EC50 did it give?
Answer: Its EC50 is ≤ 5 nM.

Question: For `COC(=O)N[C@H](C(=O)N1C[C@H](F)C[C@H]1c1nc2cc(-c3ccc(-c4ccc5nc([C@@H]6C[C@@H](F)CN6C(=O)[C@@H](NC(=O)OC)C(C)C)[nH]c5c4)cc3)ccc2[nH]1)C(C)C` [Compound 165], which EC50 is on record?
Answer: Its EC50 is ≤ 5 nM.

Question: With `COC(=O)N[C@H](C(=O)N1CCC[C@H]1c1nc2cc(-c3ccc(-c4ccc5nc([C@@H]6CCCN6C(=O)[C@@H](NC(=O)OC)C(C)C)[nH]c5c4)c(OC)c3OC)ccc2[nH]1)C(C)C` [Compound 166] as the molecule, how does the EC50 read?
Answer: Its EC50 is ≤ 5 nM.

Question: `COC(=O)N[C@H](C(=O)N1CCC[C@H]1c1nc2cc(-c3cc4sc(-c5ccc6nc([C@@H]7CCCN7C(=O)[C@@H](NC(=O)OC)C(C)C)[nH]c6c5)cc4s3)ccc2[nH]1)C(C)C` [Compound 167] was tested. Which EC50 did it give?
Answer: The EC50 was ≤ 5 nM.

Question: For `COC(=O)N[C@H](C(=O)N1CCOC[C@H]1c1nc2cc(-c3ccc(-c4ccc5nc([C@@H]6COCCN6C(=O)[C@@H](NC(=O)OC)C(C)C)[nH]c5c4)cc3)ccc2[nH]1)C(C)C` [Compound 168], which EC50 is on record?
Answer: The EC50 was ≤ 5 nM.

Question: How did the EC50 turn out when `COC(=O)N[C@H](C(=O)N1C[C@@H](F)C[C@H]1c1nc2cc(-c3ccc(-c4ccc5nc([C@@H]6C[C@H](F)CN6C(=O)[C@@H](NC(=O)OC)C(C)C)[nH]c5c4)cc3)ccc2[nH]1)C(C)C` [Compound 169] was run?
Answer: The EC50 was ≤ 5 nM.
